# Experimental data from paper PMC12428754, “Testing Strategies for Metabolite-Mediated Neurotoxicity” (International Journal of Molecular Sciences, 2025).
# Where two headings read alike, the source gives them in different places.
# Legend:
# [1] = for extent of metabolite formation / cofactor (NADPH) dependence of metabolite formation: result in words; for cofactor (NADPH) dependence of metabolite formation: human liver microsomes ± NADPH; for metabolite formation over time: samples every 30 min for 2 h
# Procedure: Parent compounds were incubated at final concentrations of either (a) 5 µM or (b) 50 µM (for chlorfenapyr) with pooled human liver microsomes (HLM; mixed gender, n = 150; BioIVT; West Sussex, UK) at corresponding protein concentrations of (a) 0.52 mg/mL or (b) 5.2 mg/mL. Incubations were performed in the absence or presence of NADPH at final concentrations of (a) 1 mM or (b) 10 mM, respectively, using a thermostated orbital shaker at 37 °C and 150 rpm. Reactions were terminated at designated time points by the addition of acetonitrile/methanol (3:1, v/v). Samples were then centrifuged at 10,000× g for 10 min, and the resulting supernatants were analysed by LC-MS/MS.
# All analytes were measured using an Acquity UPLC H-Class system coupled to a Xevo TQ-S micro mass spectrometer (Waters). Chromatographic separation was performed on an Acquity UPLC BEH C18 column (2.1 × 50 mm, 1.7 µm) with a mobile phase consisting of 0.1% formic acid in water (A) and acetonitrile (B). Unless otherwise stated, the column was maintained at 30 °C and operated at a flow rate of 0.4 mL/min. The standard gradient was 95% A from 0 to 1.0 min, decreased to 2% A by 1.5 min, held until 4.0 min, returned to 95% A at 4.3 min, and held until 5.0 min. […] The mass spectrometer operated in electrospray ionisation (ESI) mode. Compound-specific MRM transitions, cone voltages, and collision energies for all analytes are listed in Supplementary Table S2.
# Int. J. Mol. Sci. 2025, 26, x FOR PEER REVIEW 3 of 5
# Supplementary Figure S3: Quantification of specific metabolite formation from selected parent/metabolite pairs in a human liver microsomes (HLM) assay. Parent compounds (PAR) were incubated at a concentration of 5 µM (50 µM for chlorfenapyr) with HLM in the absence (dashed line, open symbols) or presence of NADPH (solid lines, closed symbols). Samples were taken every 30 min for 2 h (+NADPH) or at 2 h only (- NADPH). The remaining fraction of the PAR was quantified for each sample. Additionally, one key metabolite (MET) was measured. Its amount is expressed as fraction of PAR converted to MET, assuming an equimolar PAR to MET reaction, 100 % indicates a complete conversion. The middle-dashed line indicates a metabolite formation of at least 10% of PAR. Data are means of two measurements n.d. = not detected.
# (1 picture or pasted object on this page, not shown here)
# LUHMES cells [2] = assay: MitoMet (UKN4b) neurite outgrowth assay; assay type: cell-based, human; settings: for IC25: Homo sapiens, benchmark response 25%, neurite area, 24 h exposure, three independent experiments, read-out: BMC25 neurite outgrowth; for fold change between BMC25 values of parent and metabolite (potency ratio, parent divided by metabolite): listed under the metabolite, >1 = metabolite more potent
# Procedure: Figure 1 (A) A strategy scheme to assess metabolite-mediated hazard in NAMs used for neurotoxicity or developmental neurotoxicity. Parent and metabolite compounds are tested separately in the respective assay. This strategy is applicable when there is prior knowledge of metabolite formation. A decision rule based on the relative toxicities (X) of the parent and metabolite may be applied to decide whether next-generation risk assessment (NGRA) should be applied to the metabolite. The value of X may be defined according to the problem formulation and the NAM used. (B) An assay scheme of the neurite outgrowth assay used here for exemplification: Proliferating LUHMES cells were replated one day before differentiation was initiated (day −1). After two days (day 2) in differentiation medium, the cells were replated into assay format (96-well). At this point, neurite growth was re-initiated. The cells were treated with toxicants 1 h after replating. Neurite outgrowth and viability were determined 24 h later, using automated high content imaging. (C) Comparison of neurite outgrowth of cultures treated with bromethalin and desmethyl-bromethalin one exemplary parent/metabolite pair (chemical structures shown). […] The curves are based on data from three independent experiments and were fitted using a four-parameter Hill function. Data points shown are arithmetic means of data from independent experiments ±SEM. In each independent experiment, the technical replicates were measured and averaged. A benchmark response (BMR) of 25% was used as specified in the detailed assay description, and the respective benchmark concentration (BMC25) was determined. […] (D) Microscopic images of calcein-stained LUHMES cells. Similar images are used for neurite quantification. Treatment with 40 nM of the parent (left) or metabolite (right). The scale bar in orange corresponds to 50 µm. […] It stands under panel C and to the right of panel D, and was assigned to C.
# (§1) The MitoMet neurite outgrowth assay was performed as previously described. In brief, all cell culture dishes and flasks were pre-coated with 50 μg/mL poly-l-ornithine (PLO) and 1 μg/mL fibronectin. Proliferating LUHMES cells were maintained in AdvDMEM/F12 containing L-glutamine (2 mM), N2 supplement (1x), and FGF (40 ng/mL). For pre-differentiation, the cells were replated at a density of 46,000 cells/cm^2 one day prior to the induction of differentiation (defined as the day of differentiation, Day −1). Differentiation was initiated by exchanging the culture medium for AdvDMEM/F12 supplemented with L-glutamine (2 mM), N2 supplement (1x), dibutyryl-cAMP (1 mM), tetracycline (1 µg/mL), and GDNF (2 ng/mL). After two days of differentiation (Day 2), the cells were replated (100,000 cells/cm^2) into 96-well plates. The final assay medium consisted of glucose-free AdvDMEM/F12 supplemented with galactose (18 mM), L-glutamine (2 mM), and tetracycline (1 µg/mL). One hour after replating, the cells were treated with a 10× concentrated stock solution of the test compound. Neurite outgrowth and viability were determined 24 h later, using automated high content imaging.
# The image acquisition and analysis were conducted according to established protocols. The cells were stained with Hoechst H-33342 (1 µg/mL) to visualise nuclei and calcein-AM (1 µM) to label viable cell structures. Fluorescent images were acquired using an automated imaging system.
# LUHMES cells [3] = system: LUHMES cells
# Procedure: Figure 4 A strategy to incorporate metabolic competence into in vitro DNT testing methods. (A) A schematic overview of a sequential metabolism and testing approach. The “metabolisation module” uses hepatic post-mitochondrial fractions (S9) to generate metabolite mixtures in the presence or absence of cofactors (NADPH, glucose-6-phosphate, MgCl2). These metabolite mixtures are tested in the “testing module” in a concentration-dependent manner after serial pre-dilutions. Metabolite mixtures are added as a fraction of 10% to the media volume of the “testing module”. The testing module may be a cell-based neurotoxicity (NT) or developmental neurotoxicity (DNT) assay, such as the neurite outgrowth or migration assay. Here, the Mito-Met neurite outgrowth assay, as in Figure 1, was used. […] The curves represent data from three independent experiments and were fitted using a four-parameter Hill function. […] The data represent three independent experiments. The indicated concentrations are “testing module” concentrations.
# To further evaluate our modular pre-activation strategy for identifying metabolite-mediated hazard, we tested a broader panel of compounds. For each compound (parent), a single concentration was used in the metabolisation module. The metabolite mixtures were generated in the absence or presence of NADPH. These metabolite mixtures were serially diluted and assessed using the MitoMet neurite outgrowth assay. As a measure of potency, EC25 values were determined, and potency ratios were calculated to compare the effects of NADPH-dependent versus NADPH-independent metabolism.
# Figure 5 The effect of NADPH-dependent hepatic metabolism on the DNT of selected compounds. (A) A strategy scheme to assess the effect of metabolic enzymes on the outcome of cell-based DNT assays. Metabolite mixtures are generated using the NADPH-(in)dependent metabolic activity of S9. NADPH-independent metabolism is shown in green (light grey). NADPH-dependent metabolism is shown in red (dark grey). […] (B–F) The concentration-dependent effect of metabolite mixtures on neurite outgrowth was measured as in Figure 1, with the following modifications: red-fluorescent-protein (RFP)-expressing LUHMES cells were used. As the assay endpoint, the RFP fluorescence of neurites was used instead of calcein staining. The curves represent data from three independent experiments and were fitted using a four-parameter Hill function. From this, an EC25 was calculated. Bold numbers indicate the fold changes between EC25 values of the NADPH-(in)dependent metabolite mixtures, with the direction of the arrow reflecting the shift in sensitivity. Note that the x-axes indicate nominal concentrations of parent compounds. […] Similar images were used for neurite quantification. The right image (red frame) of the pairs was obtained with NADPH. The black arrowheads above the curves indicate the experimental conditions used to record images. The scale bar in orange corresponds to 50 µm.
# as §1, with “plates.” for “plates. The final assay medium consisted of glucose-free AdvDMEM/F12 supplemented with galactose (18 mM), L-glutamine (2 mM), and tetracycline (1 µg/mL). One hour after replating, the cells were treated with a 10× concentrated stock solution of the test compound. Neurite outgrowth and viability were determined 24 h later, using automated high content imaging.”
# [4] = human liver microsomes, listed under the metabolite
structure (smiles),measurement,setting,value
C[C@H]1[C@H](OC(=O)CCC(=O)O)O[C@@H]2O[C@@]3(C)CC[C@H]4[C@H](C)CC[C@@H]1[C@@]24OO3 [Artesunate],extent of metabolite formation,[1]; human liver microsomes,completely converted
same,IC25,LUHMES cells [2],3.4 µM
CCCCNC(=O)n1c(NC(=O)OC)nc2ccccc21 [Benomyl],IC25,LUHMES cells [2],3.7 µM
COc1ccc2cc3[n+](cc2c1OC)CCc1cc2c(cc1-3)OCO2 [Berberine],fold change between EC25 values of NADPH-(in)dependent metabolite mixtures (detoxification),LUHMES cells [3],5 x
same,effect of metabolisation in the presence of NADPH on toxicity,LUHMES cells [3]; result in words,reduced
O=P1(N(CCCl)CCCl)NCCCO1 (stereo not shown) [Cyclophosphamide],inhibition of neurite outgrowth without preincubation,"LUHMES cells [3]; 100 µM, 50 µg/mL S9, no preincubation",No inhibition of neurite outgrowth
same,reduction of neurite outgrowth,"LUHMES cells [3]; 100 µM, 50 µg/mL S9, with NADPH, 2 h preincubation",approximately 90%
same,neurite toxicity at low S9 concentrations,"LUHMES cells [3]; 100 µM, S9 <10 µg/mL, 2 h incubation",did not lead to neurite toxicity
same,fold change between EC25 values of NADPH-independent and NADPH-dependent metabolite mixtures (toxification),"LUHMES cells [3]; rat liver S9 50 µg/mL in testing module, 2 h preincubation, RFP-LUHMES, toxicity increased with NADPH",> 25 x
C[C@H]1[C@@H](O)O[C@@H]2O[C@@]3(C)CC[C@H]4[C@H](C)CC[C@@H]1[C@@]24OO3 [Dihydroartemisinin],cofactor (NADPH) dependence of metabolite formation,[1],largely independently of NADPH
same,metabolite formation over time,[1]; [4],time-dependent increase in metabolite formation
same,IC25,LUHMES cells [2],1.2 µM
same,"fold change between BMC25 values of parent and metabolite (potency ratio, parent divided by metabolite)",LUHMES cells [2],3 fold
COC(=O)Nc1nc2ccc(Sc3ccccc3)cc2[nH]1 [Fenbendazole],IC25,LUHMES cells [2],0.047 µM
"O=C(CCC[n+]1ccc(-c2ccc(Cl)cc2)cc1)c1ccc(F)cc1 [HPP+, haloperidol pyridinium ion]",extent of metabolite formation,[1]; human liver microsomes,only trace amounts
same,metabolite formation over time,[1]; [4],time-dependent increase in metabolite formation
same,IC25,LUHMES cells [2],7.1 µM
same,"fold change between BMC25 values of parent and metabolite (potency ratio, parent divided by metabolite)",LUHMES cells [2],4 fold
O=C(CCCN1CCC(O)(c2ccc(Cl)cc2)CC1)c1ccc(F)cc1 [Haloperidol],IC25,LUHMES cells [2],> 33 µM
O=P1(NCCCl)OCCCN1CCCl (stereo not shown) [Ifosfamide],fold change between EC25 values of NADPH-independent and NADPH-dependent metabolite mixtures (toxification),LUHMES cells [3],> 10 x
"CNC(C)Cc1ccc2c(c1)OCO2 (stereo not shown) [MDMA, methylenedioxymethamphetamine]",IC25,LUHMES cells [2],> 100 µM
"C[n+]1ccc(-c2ccccc2)cc1 [MPP+, 1-methyl-4-phenylpyridinium]",cofactor (NADPH) dependence of metabolite formation,[1],largely independently of NADPH
same,metabolite formation over time,[1]; [4],time-dependent increase in metabolite formation
same,conversion rate of parent to metabolite,"[1]; human liver microsomes, up to 2 h, listed under the metabolite",approximately 10%
same,IC25,LUHMES cells [2],0.12 µM
"CN1CC=C(c2ccccc2)CC1 [MPTP, 1-methyl-4-phenyl-tetrahydropyridine]",IC25,LUHMES cells [2],> 100 µM
CC(N)Cc1ccc(O)c(O)c1 (stereo not drawn) [α-Methyldopamine],IC25,LUHMES cells [2],16 µM
same,"fold change between BMC25 values of parent and metabolite (potency ratio, parent divided by metabolite)",LUHMES cells [2],> 6 fold
